Patent publication US20250367173A1, “ECTONUCLEOTIDE PYROPHOSPHATASE-PHOSPHODIESTERASE-1 INHIBITORS AND PHARMACEUTICAL COMPOSITIONS COMPRISING THE SAME” (LigaChem Biosciences Inc., priority 2022, published 2025)

Columns and labels:
ENPP-1 [1] = target: T1, ENPP-1 (Homo sapiens, UniProt P22413); experiment: ENPP-1 enzyme assay with cGAMP substrate; assay type: biochemical; settings: 200 pM ENPP-1, 10 μM substrate 2′3′-cGAMP, pH 7.4, 37° C., 30 minutes, Transcreener AMP2/GMP2 kit; average IC50
T1 construct: purchased Biovendor RD172124100
T1 sequence (P22413 1-925): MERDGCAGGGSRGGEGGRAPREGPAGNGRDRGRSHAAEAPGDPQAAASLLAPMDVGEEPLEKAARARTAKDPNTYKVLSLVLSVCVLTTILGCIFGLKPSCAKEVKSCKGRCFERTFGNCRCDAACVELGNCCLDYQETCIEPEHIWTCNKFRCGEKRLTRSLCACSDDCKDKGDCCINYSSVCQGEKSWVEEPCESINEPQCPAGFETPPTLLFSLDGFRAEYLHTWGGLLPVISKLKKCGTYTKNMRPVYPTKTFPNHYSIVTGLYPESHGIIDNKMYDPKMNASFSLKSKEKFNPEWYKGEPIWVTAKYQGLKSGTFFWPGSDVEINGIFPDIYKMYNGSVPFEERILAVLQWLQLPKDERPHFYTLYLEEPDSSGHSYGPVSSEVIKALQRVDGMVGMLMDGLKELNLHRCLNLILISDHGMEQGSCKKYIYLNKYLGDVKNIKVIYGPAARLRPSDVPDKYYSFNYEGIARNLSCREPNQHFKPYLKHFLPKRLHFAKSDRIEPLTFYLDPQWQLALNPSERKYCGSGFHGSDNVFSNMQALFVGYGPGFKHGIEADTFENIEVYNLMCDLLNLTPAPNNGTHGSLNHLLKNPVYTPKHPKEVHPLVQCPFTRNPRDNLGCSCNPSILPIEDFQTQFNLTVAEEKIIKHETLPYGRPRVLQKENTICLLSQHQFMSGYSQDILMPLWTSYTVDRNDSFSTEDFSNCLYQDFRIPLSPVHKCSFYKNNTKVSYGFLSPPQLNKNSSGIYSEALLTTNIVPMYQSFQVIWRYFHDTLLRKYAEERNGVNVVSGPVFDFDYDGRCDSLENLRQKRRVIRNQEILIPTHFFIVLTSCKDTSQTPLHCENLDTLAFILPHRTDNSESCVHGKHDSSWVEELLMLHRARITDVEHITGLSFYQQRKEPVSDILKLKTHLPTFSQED
Protocol: 2′3′-cGAMP is a natural substrate specifically hydrolyzed by ENPP-1, and produces 5′-adenosine monophosphate (AMP) and 5′-guanosine monophosphate (GMP). AMP and GMP produced from the reaction are monitored for ENPP-1 enzyme activity through an AMP^2/GMP^2 ENPP-1 Assay kit (Bellbrook Labs, catalog number 3015).
First, the reaction mixture contains 25 mM Tris-HCl (pH 7.4), 5 mM MgCl2, 0.01% Brij-35, and 1% DMSO. Serially diluted ENPP-1 inhibitors (test compound concentrations ranging from 10 μM to 0.5 nM) are reacted with 200 pM ENPP-1 (Biovendor, catalog number RD172124100) and 10 μM substrate 2′3′-cGAMP at 37° C. for 30 minutes. All assays include a DMSO control without ENPP-1 inhibitor that provides maximal AMP and GMP production. After 30 minutes of this reaction, AMP and GMP production is detected as a measure of ENPP-1 enzymatic activity using the Transcreener® AMP^2/GMP^2 ENPP-1 Assay kit. The detection reagent is a reagent containing 16 nM AMP^2/GMP^2 Antibody-Tb, 25 mM Tris-HCl and 60.1 nM AMP/GMP HiLyte647 Tracer, which is added by 5 μl, mixed well, and incubated at 25° C. for 2 hours.
(§1) The […] signal is measured using a SPARK Cyto plate reader (Tecan). Inhibition (%) is calculated using the following formula: (Max 615:665 ratio-615:665 ratio)/Max 615:665 ratio×100%. % residual ENPP-1 enzyme activity versus IC50 values for ENPP-1 inhibitor concentrations were determined by fitting inhibition curves using the 4-parameter method of GraphPad Prism® software [GraphPad version 9.3.1 for Windows, GraphPad Software, La Jolla California USA, www.graphpad.com].

ENPP-1 [2] = target: T1, ENPP-1; experiment: ENPP-1 enzyme assay with pNP-TMP substrate; assay type: biochemical; settings: 12.5 ng ENPP-1, 720 μM substrate pNP-TMP, pH 9.0, 37° C., 60 minutes, absorbance 405 nm; average IC50
Protocol: In order to measure the ENPP-1 inhibitory activity of the compounds according to the present disclosure, the following tests were performed.
ENPP-1 hydrolyzes a variety of substrates, including phosphodiester bonds of nucleotides and nucleotide sugars and pyrophosphate bonds of nucleotides and nucleotide sugars. p-Nitrophenyl 5′-thymidine monophosphate (p-Nph-5′-TMP) is an artificial substrate for 5′-adenosine monophosphate (AMP), which is hydrolyzed by the human recombinant ENPP-1 enzyme. In the above reaction, ENPP-1 enzymatic activity is monitored through the formation of yellow p-nitrophenolate, which absorbs at 405 nm.
First, the reaction mixture contains 100 mM Tris-HCl (pH 9.0), 150 mM NaCl, […], and 1% DMSO. Serially diluted ENPP-1 inhibitors (test compound concentrations ranging from 10 μM to 0.5 nM) are reacted with 12.5 ng of ENPP-1 (Biovendor, catalog number RD172124100) and 720 μM substrate pNP-TMP at 37° C. for 60 minutes. All assays include a DMSO control without ENPP-1 inhibitor that gives maximum absorbance.
as §1, with “After 60 minutes of this reaction, the” for “The”, “an Epoch™ Microplate Spectrophotometer (BioTek Instruments Inc.).” for “a SPARK Cyto plate reader (Tecan).”, “Sample OD405 nm/Max OD405 nm×100%.” for “(Max 615:665 ratio-615:665 ratio)/Max 615:665 ratio×100%.”

Compound | IC50 (ENPP-1 [1]) | IC50 (ENPP-1 [2])
COc1ccc2c(c1)c1ncccc1n2Cc1ccc(S(C)(=N)=O)cc1 (single isomer, unassigned) [Compound 10a, imino (4-((8-methoxy-5H-pyrido[3,2-b]indol-5-yl)methyl)phenyl)(methyl)-l6-sulfanone] | < 1000 nM | < 1000 nM
COc1ccc2c(c1)c1ncccc1n2Cc1ccc(S(C)(=N)=O)cc1 (single isomer, unassigned) [Compound 10b, imino (4-((8-methoxy-5H-pyrido[3,2-b]indol-5-yl)methyl)phenyl)(methyl)-l6-sulfanone] |  | < 1000 nM
COc1cc2c3ncccc3n(Cc3ccc(S(C)(=N)=O)cc3)c2cc1F (single isomer, unassigned) [Compound 30a, (4-((7-fluoro-8-methoxy-5H-pyrido[3,2-b]indol-5-yl)methyl)phenyl)(imino)(methyl)-l6-sulfanone] | < 1000 nM | < 1000 nM
COc1cc2c3ncccc3n(Cc3ccc(S(C)(=N)=O)cc3)c2cc1F (single isomer, unassigned) [Compound 30b, (4-((7-fluoro-8-methoxy-5H-pyrido[3,2-b]indol-5-yl)methyl)phenyl)(imino)(methyl)-l6-sulfanone] |  | < 1000 nM
COc1cc2c3ncccc3n(Cc3ccc(S(=N)(=O)C4CC4)cc3)c2cc1F (single isomer, unassigned) [Compound 56a, cyclopropyl (4-((7-fluoro-8-methoxy-5H-pyrido[3,2-b]indol-5-yl)methyl)phenyl) (imino)-l6-sulfanone] |  | < 1000 nM
COc1cc2c3ncccc3n(Cc3ccc(S(=N)(=O)C4CC4)cc3)c2cc1F (single isomer, unassigned) [Compound 56b, cyclopropyl (4-((7-fluoro-8-methoxy-5H-pyrido[3,2-b]indol-5-yl)methyl)phenyl) (imino)-l6-sulfanone] | < 1000 nM | 
CS(=N)(=O)c1ccc(Cn2c3ccccc3c3ccncc32)cc1 (stereo not drawn) [Compound 1, (4-((9H-pyrido[3,4-b]indol-9-yl)methyl)phenyl)(imino)(methyl)-l6-sulfanone] | 1000 to 10000 nM | < 1000 nM
COc1ccc2c(c1)c1ccncc1n2Cc1ccc(S(N)(=O)=O)cc1 [Compound 2, 4-((6-methoxy-9H-pyrido[3,4-b]indol-9-yl)methyl)benzenesulfonamide] | < 1000 nM | < 1000 nM
COc1ccc2c(c1)c1ccncc1n2Cc1ccc(S(C)(=N)=O)cc1 (stereo not drawn) [Compound 3, imino (4-((6-methoxy-9H-pyrido[3,4-b]indol-9-yl)methyl)phenyl)(methyl)-l6-sulfanone] | < 1000 nM | < 1000 nM
COc1ccc2c(c1)c1cnccc1n2Cc1ccc(S(N)(=O)=O)cc1 [Compound 4, 4-((8-methoxy-5H-pyrido[4,3-b]indol-5-yl)methyl)benzenesulfonamide] | < 1000 nM | < 1000 nM
COc1ccc2c(c1)c1ncccc1n2Cc1ccc(S(N)(=O)=O)cc1 [Compound 5, 4-((8-methoxy-5H-pyrido[3,2-b]indol-5-yl)methyl)benzenesulfonamide] | < 1000 nM | < 1000 nM
COc1ccc2c(c1)c1ncccc1n2CC1CCN(S(N)(=O)=O)CC1 [Compound 6, 4-((8-methoxy-5H-pyrido[3,2-b]indol-5-yl)methyl) piperidine-1-sulfonamide] | < 1000 nM | < 1000 nM
CNS(=O)(=O)c1ccc(Cn2c3ccc(OC)cc3c3ncccc32)cc1 [Compound 7, 4-((8-methoxy-5H-pyrido[3,2-b]indol-5-yl)methyl)-N-methylbenzenesulfonamide] | > 10000 nM | 1000 to 10000 nM
COc1ccc2c(c1)c1ncccc1n2Cc1ccc(NS(N)(=O)=O)cc1 [Compound 8, N-(4-((8-methoxy-5H-pyrido[3,2-b]indol-5-yl)methyl)phenyl) sulfamide] | < 1000 nM | < 1000 nM
COc1ccc2c(c1)c1ncccc1n2CCc1ccc(S(N)(=O)=O)cc1 [Compound 9, 4-(2-(8-methoxy-5H-pyrido[3,2-b]indol-5-yl)ethyl)benzenesulfonamide] | > 10000 nM | < 1000 nM
CCS(=N)(=O)c1ccc(Cn2c3ccc(OC)cc3c3ncccc32)cc1 (stereo not drawn) [Compound 11, ethyl (imino) (4-((8-methoxy-5H-pyrido[3,2-b]indol-5-yl)methyl)phenyl)-l6-sulfanone] | < 1000 nM | < 1000 nM
COc1ccc2c(c1)c1ncccc1n2Cc1ccc(S(=N)(=O)Cc2ccccc2)cc1 (stereo not drawn) [Compound 12, benzyl(imino)(4-((8-methoxy-5H-pyrido[3,2-b]indol-5-yl)methyl)phenyl)-l6-sulfanone] | < 1000 nM | < 1000 nM
COc1ccc2c(c1)c1c(n2Cc2ccc(S(N)(=O)=O)cc2)CNC(C)C1 (stereo not drawn) [Compound 33, 4-((6-methoxy-3-methyl-1,2,3,4-tetrahydro-9H-pyrido[3,4-b]indol-9-yl)methyl)benzene sulfonamide] |  | > 10000 nM
COc1ccc2c(c1)c1c(n2Cc2cccc(S(N)(=O)=O)c2)CCCN1 [Compound 39, 3-((8-methoxy-1,2,3,4-tetrahydro-5H-pyrido[3,2-b]indol-5-yl)methyl)benzenesulfonamide] |  | > 10000 nM
Cc1ccc2c(c1)c1c(n2Cc2ccc(S(N)(=O)=O)cc2)CCCN1 [Compound 40, 4-((8-methyl-1,2,3,4-tetrahydro-5H-pyrido[3,2-b]indol-5-yl)methyl)benzenesulfonamide] |  | 1000 to 10000 nM
COc1ccc2c(c1)c1cnncc1n2Cc1ccc(S(N)(=O)=O)cc1 [Compound 50, 4-((8-methoxy-5H-pyridazino[4,5-b]indol-5-yl)methyl)benzenesulfonamide] |  | 1000 to 10000 nM
COc1ccc2c(c1F)c1ncccc1n2Cc1ccc(S(N)(=O)=O)cc1 [Compound 54, 4-((9-fluoro-8-methoxy-5H-pyrido[3,2-b]indol-5-yl)methyl)benzenesulfonamide] | < 1000 nM | 
COc1ccc2c(c1)c1ncccc1n2Cc1ccc(S(C)(=N)=O)cc1C(F)(F)F (stereo not drawn) [Compound 55, imino (4-((8-methoxy-5H-pyrido[3,2-b]indol-5-yl)methyl)-3-(trifluoromethyl)phenyl)(methyl)-l6-sulfanone] |  | > 10000 nM
